Laboratory results published in patent US20020082213A1 (priority 1996, published 2002).

Columns and labels:
[1] = system: female albino mice (Ibm: MORO); test: Operant conflict test for anxiolytic effect; assay type: in vivo; conditions: 10 mg/kg oral, 30 minutes prior to testing
LC132 receptors = conditions: cited from earlier work

Compound | punished lever-pressing [1] | unpunished responding [1] | inhibition of cyclic AMP formation (LC132 receptors)
CN1C(=O)CN=C(c2ccccc2)c2cc(Cl)ccc21 [diazepam] | enhanced punished lever-pressing | some reduction of unpunished responding | –
dynorphin A | – | – | weakly inhibited
